Laboratory results from ChEMBL document CHEMBL5727581, “Triazole DAGLα inhibitors” (2020).

Key:
[1] = molecular target: T1, Diacylglycerol lipase-beta (Homo sapiens, UniProt Q8NCG7); assay: (§1) In Vitro Inhibition of DAGL: Briefly, membrane proteome (1 mg/ml, 20 μL) was prepared from HEK293T cells (transiently transfected with hDAGLα-FLAG or hDAGLα-S472A-FLAG, hDAGLβ-FLAG or hDAGLβ-S443A-FLAG) as described in Example 16. The proteome was incubated at room temperature with vehicle (DMSO) or compound in 0.5 μL DMSO for 30 min. The membrane proteome sample was subsequently treated for 30 min with HT-01 probe (1 μM) or FP-Rh probe (1 μM). The reactions were quenched with 10 μL 3× Laemmli sample buffer (final concentrations: 60 mM Tris-Cl pH 6.8, 2% (w/v) SDS, 10% (v/v) glycerol, 5% (v/v) (3-mercaptoethanol, 0.01% (v/v) bromophenol blue). The samples were directly loaded and resolved on SDS page gel (10% acrylamide). The gels were scanned using a ChemiDoc MP system (Cy3 settings, 605/50 filter).The resolved proteins were transferred from the gels to a polyvinyldifluoride membrane for Western Blotting using a Trans-Blot® Turbo (BioRad). FLAG-tagged enzymes were stained using rabbit anti-FLAG as primary antibody, and goat-anti-rabbit HRP as secondary antibody. The blot was developed in the dark using a 10 mL luminal solution, 100 μL ECL enhancer and 3 μL H2O2. Chemiluminescence was visualized using a ChemiDoc XRS (BioRad).The percentage of DAGL activity remaining in the assayed samples was determined by measuring the integrated optical intensity of the fluorescent protein bands of the Western Blot using image lab 4.1. The relative intensity was compared to the vehicle (DMSO) treated proteins, which were set to 100%. IC50 values were determined by plotting a log(inhibitor) vs. normalized response (Variable slope) dose-response curve generated using Prism software (GraphPad).
T1 sequence (Q8NCG7 whole entry): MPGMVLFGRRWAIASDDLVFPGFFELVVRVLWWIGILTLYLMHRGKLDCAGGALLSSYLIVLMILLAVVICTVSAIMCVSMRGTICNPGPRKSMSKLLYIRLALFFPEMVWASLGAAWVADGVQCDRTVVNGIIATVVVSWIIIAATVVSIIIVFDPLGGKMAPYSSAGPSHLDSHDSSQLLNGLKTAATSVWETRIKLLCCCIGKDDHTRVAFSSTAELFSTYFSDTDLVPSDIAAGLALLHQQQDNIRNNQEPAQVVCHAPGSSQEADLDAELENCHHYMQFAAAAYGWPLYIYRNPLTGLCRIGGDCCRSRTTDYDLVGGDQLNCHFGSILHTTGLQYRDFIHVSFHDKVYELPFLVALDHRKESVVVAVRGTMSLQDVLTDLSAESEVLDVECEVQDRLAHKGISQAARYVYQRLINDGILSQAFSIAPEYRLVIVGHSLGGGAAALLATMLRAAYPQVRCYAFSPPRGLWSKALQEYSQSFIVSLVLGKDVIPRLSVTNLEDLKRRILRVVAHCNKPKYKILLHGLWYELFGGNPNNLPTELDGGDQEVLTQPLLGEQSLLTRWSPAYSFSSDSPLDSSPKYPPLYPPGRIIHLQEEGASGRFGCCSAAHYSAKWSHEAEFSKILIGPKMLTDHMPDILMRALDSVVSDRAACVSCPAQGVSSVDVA

[2] = molecular target: T2, Diacylglycerol lipase-alpha (Homo sapiens, UniProt Q9Y4D2); assay: as §1
T2 sequence (Q9Y4D2 whole entry): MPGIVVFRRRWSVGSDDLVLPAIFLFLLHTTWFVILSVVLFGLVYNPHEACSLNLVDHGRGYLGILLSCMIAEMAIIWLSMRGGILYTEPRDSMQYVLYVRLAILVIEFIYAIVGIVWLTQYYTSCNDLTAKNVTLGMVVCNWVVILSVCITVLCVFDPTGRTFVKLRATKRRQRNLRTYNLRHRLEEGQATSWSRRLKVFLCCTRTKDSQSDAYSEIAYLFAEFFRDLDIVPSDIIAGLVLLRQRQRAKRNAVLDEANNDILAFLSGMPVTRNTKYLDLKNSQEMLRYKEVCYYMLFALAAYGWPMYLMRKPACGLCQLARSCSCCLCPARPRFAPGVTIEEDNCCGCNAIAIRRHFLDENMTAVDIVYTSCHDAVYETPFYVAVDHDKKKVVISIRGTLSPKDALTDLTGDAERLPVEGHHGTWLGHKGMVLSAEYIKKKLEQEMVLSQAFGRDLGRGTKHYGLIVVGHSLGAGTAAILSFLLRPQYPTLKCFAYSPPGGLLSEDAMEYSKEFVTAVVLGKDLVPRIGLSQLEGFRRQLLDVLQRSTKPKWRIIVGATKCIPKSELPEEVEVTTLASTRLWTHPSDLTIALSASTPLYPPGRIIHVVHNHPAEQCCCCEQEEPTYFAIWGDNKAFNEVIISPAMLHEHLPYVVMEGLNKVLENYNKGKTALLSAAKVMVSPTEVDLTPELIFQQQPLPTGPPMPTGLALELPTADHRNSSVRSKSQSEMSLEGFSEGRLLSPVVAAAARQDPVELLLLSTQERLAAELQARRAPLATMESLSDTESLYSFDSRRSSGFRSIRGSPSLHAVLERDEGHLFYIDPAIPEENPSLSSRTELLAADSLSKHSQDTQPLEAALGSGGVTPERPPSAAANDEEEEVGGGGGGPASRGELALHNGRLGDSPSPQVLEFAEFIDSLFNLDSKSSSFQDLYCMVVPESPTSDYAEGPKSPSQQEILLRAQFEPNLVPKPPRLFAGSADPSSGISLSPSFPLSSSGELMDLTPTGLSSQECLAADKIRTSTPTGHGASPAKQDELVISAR

SMILES	IC50 [1] [nM]	IC50 [2] [nM]
CCC(CC)CN(CCc1ccccc1)C(=O)n1ncc(-c2ccc(OC(F)(F)F)cc2)n1	< 400	
CCC(CC)CN(CCc1ccccc1)C(=O)n1cc(-c2ccc(OC(F)(F)F)cc2)nn1	< 400	< 400
